The record followed here is patent publication US20170326125A1, “MULTISUBSTITUTED AROMATIC COMPOUNDS AS INHIBITORS OF THROMBIN” (VERSEON CORPORATION, priority 2016, published 2017).

For this experiment, the target named is T1, Human thrombin (Homo sapiens, UniProt P00734).
T1 construct: purchased Haematologic Technologies Inc
Put plainly: Inhibition of the protease activity of thrombin (chromogenic substrate S-2238). Format: biochemical. As to conditions: inhibition of the protease activity of thrombin; class symbols a/b/c. How it is done:
Compounds described herein can be assayed, by a variety of methods known in the art and described herein, for inhibition of biological activity, e.g., protease activity, of a variety of proteins, e.g., thrombin.
The thrombin activity reported herein (e.g., Table A) was obtained as follows. Human thrombin was obtained from Haematologic Technologies Inc. The chromogenic
Thrombin was assayed in buffer containing 0.05 M Tris (pH 7.4), 0.015 M NaCl and 0.01% PEG-8000. The final concentration of enzyme used was 3 nM thrombin. […] All assays were performed in 96-well microtiter plates at room temperature (RT). […] Inhibitor IC50 values were determined by adding test compound as ten point, three-fold serial dilutions in buffer solution, as known in the art. The plate was read at 10 minutes after substrate addition. The IC50 was calculated by plotting the percent (%) inhibition against compound concentration and fitting the data to a constrained four parameter sigmoidal curve, as known in the art.
As usually defined, the IC50 is the point on the concentration scale where inhibition reaches its midpoint. Read a low IC50 as greater potency in that assay. Turning to `CCCC(=O)n1nc(-c2ccncc2)nc1NCc1ccc(F)cc1` [Cmpd 80, 1-(5-[(4-fluorophenyl)methyl]amino-3-(pyridin-4-yl)-1H-1,2,4-triazol-1-yl)butan-1-one], the IC50 is under 100 nM.

Consider `CCC(=O)n1nc(-c2ccncc2)nc1NCc1ccc(F)cc1` [Cmpd 81, 1-(5-[(4-fluorophenyl)methyl]amino-3-(pyridin-4-yl)-1H-1,2,4-triazol-1-yl)propan-1-one], for which the IC50 is under 100 nM.

`CC(C)(C)C(=O)n1nc(-c2cccs2)nc1NCc1ccc(F)cc1` [Cmpd 82, 1-(5-[(4-fluorophenyl)methyl]amino-3-(thiophen-2-yl)-1H-1,2,4-triazol-1-yl)-2,2-dimethylpropan-1-one]: the IC50 was under 100 nM.

Consider `CCC(=O)n1nc(-c2cccs2)nc1NCc1ccc(F)cc1` [Cmpd 83, 1-(5-[(4-fluorophenyl)methyl]amino-3-(thiophen-2-yl)-1H-1,2,4-triazol-1-yl)propan-1-one], for which the half-maximal inhibitory concentration (IC50) lay in the range of 100 to 1000 nM.

Turning to `CCC(=O)n1nc(-c2ccccc2)cc1NCc1ccc(F)cc1` [Cmpd 84, 1-(5-[(4-fluorophenyl)methyl]amino-3-phenyl-1H-pyrazol-1-yl)propan-1-one], the concentration for half-maximal inhibition (IC50) was over 1000 nM.

For the compound `CCC(=O)n1nc(-c2ccccc2)c(C)c1NCc1ccc(F)cc1` [Cmpd 85, 1-(5-[(4-fluorophenyl)methyl]amino-4-methyl-3-phenyl-1H-pyrazol-1-yl)propan-1-one], the half-inhibitory concentration (IC50) was over 1000 nM.

Compound `CCC(=O)n1nc(-c2cccnc2)nc1SCc1ccc(F)cc1` [Cmpd 86, 1-(5-[(4-fluorophenyl)methyl]sulfanyl-3-(pyridin-3-yl)-1H-1,2,4-triazol-1-yl)propan-1-one] came in with a 50% inhibitory concentration (IC50) of under 100 nM.

For `COc1ccc(CNc2nc(-c3ccccn3)nn2C(=O)C(C)C)cc1` [Cmpd 88, 1-(5-[(4-methoxyphenyl)methyl]amino-3-(pyridin-2-yl)-1H-1,2,4-triazol-1-yl)-2-methylpropan-1-one], the concentration for half-maximal inhibition (IC50) is under 100 nM.

`COc1ccc(CNc2nc(-c3ccccn3)nn2C(=O)Cc2ccccc2)cc1` [Cmpd 89, 1-(5-[(4-methoxyphenyl)methyl]amino-3-(pyridin-2-yl)-1H-1,2,4-triazol-1-yl)-2-phenylethan-1-one]: the half-inhibitory concentration (IC50) was under 100 nM.

`COc1ccc(CNc2nc(-c3ccccn3)nn2C(=O)CC(C)C)cc1` [Cmpd 90, 1-(5-[(4-methoxyphenyl)methyl]amino-3-(pyridin-2-yl)-1H-1,2,4-triazol-1-yl)-3-methylbutan-1-one] yielded a concentration for half-maximal inhibition (IC50) of under 100 nM.

As for `COc1ccc(CNc2nc(-c3ccccn3)nn2C(=O)CCc2ccccc2)cc1` [Cmpd 91, 1-(5-[(4-methoxyphenyl)methyl]amino-3-(pyridin-2-yl)-1H-1,2,4-triazol-1-yl)-3-phenylpropan-1-one], the IC50 lay in the range of 100 to 1000 nM.

The compound `CCCC(=O)n1nc(-c2ccccn2)nc1NCc1ccc(OC)cc1` [Cmpd 92, 1-(5-[(4-methoxyphenyl)methyl]amino-3-(pyridin-2-yl)-1H-1,2,4-triazol-1-yl)butan-1-one] returned an IC50 of under 100 nM.

`CCC(=O)n1nc(-c2ccccn2)nc1NCc1ccc(OC)cc1` [Cmpd 93, 1-(5-[(4-methoxyphenyl)methyl]amino-3-(pyridin-2-yl)-1H-1,2,4-triazol-1-yl)propan-1-one] showed a 50% inhibitory concentration (IC50) of under 100 nM.

For `COc1ccc(CNc2nc(-c3cccnc3)nn2C(=O)C(C)(C)C)cc1` [Cmpd 94, 1-(5-[(4-methoxyphenyl)methyl]amino-3-(pyridin-3-yl)-1H-1,2,4-triazol-1-yl)-2,2-dimethylpropan-1-one], the 50% inhibitory concentration (IC50) was under 100 nM.

`COc1ccc(CNc2nc(-c3ccncc3)nn2C(=O)C(C)C)cc1` [Cmpd 95, 1-(5-[(4-methoxyphenyl)methyl]amino-3-(pyridin-4-yl)-1H-1,2,4-triazol-1-yl)-2-methylpropan-1-one]: the IC50 was under 100 nM.

Compound `COc1ccc(CNc2nc(-c3ccncc3)nn2C(=O)Cc2ccccc2)cc1` [Cmpd 96, 1-(5-[(4-methoxyphenyl)methyl]amino-3-(pyridin-4-yl)-1H-1,2,4-triazol-1-yl)-2-phenylethan-1-one] displayed a half-maximal inhibitory concentration (IC50) of under 100 nM.

Regarding `COc1ccc(CNc2nc(-c3ccncc3)nn2C(=O)CC(C)C)cc1` [Cmpd 97, 1-(5-[(4-methoxyphenyl)methyl]amino-3-(pyridin-4-yl)-1H-1,2,4-triazol-1-yl)-3-methylbutan-1-one], the half-maximal inhibitory concentration (IC50) is under 100 nM.

As for `COc1ccc(CNc2nc(-c3ccncc3)nn2C(=O)CCc2ccccc2)cc1` [Cmpd 98, 1-(5-[(4-methoxyphenyl)methyl]amino-3-(pyridin-4-yl)-1H-1,2,4-triazol-1-yl)-3-phenylpropan-1-one], the half-maximal inhibitory concentration (IC50) is over 1000 nM.

As for `CCCC(=O)n1nc(-c2ccncc2)nc1NCc1ccc(OC)cc1` [Cmpd 99, 1-(5-[(4-methoxyphenyl)methyl]amino-3-(pyridin-4-yl)-1H-1,2,4-triazol-1-yl)butan-1-one], the concentration for half-maximal inhibition (IC50) is under 100 nM.

The compound `CCC(=O)n1nc(-c2ccncc2)nc1NCc1ccc(OC)cc1` [Cmpd 100, 1-(5-[(4-methoxyphenyl)methyl]amino-3-(pyridin-4-yl)-1H-1,2,4-triazol-1-yl)propan-1-one] registered an IC50 of 100 to 1000 nM.

As to `O=C(c1cccc2c1OC(F)(F)O2)n1nc(-c2ccccc2)nc1NCc1ccc(F)cc1` [Cmpd 101, 1-[(2,2-difluoro-2H-1,3-benzodioxol-4-yl)carbonyl]-N-[(4-fluorophenyl)methyl]-3-phenyl-1H-1,2,4-triazol-5-amine], the IC50 is over 1000 nM.

Compound `O=C(c1cccc2c1OCCO2)n1nc(-c2ccccc2)nc1NCc1ccc(F)cc1` [Cmpd 102, 1-[(2,3-dihydro-1,4-benzodioxin-5-yl)carbonyl]-N-[(4-fluorophenyl)methyl]-3-phenyl-1H-1,2,4-triazol-5-amine] displayed a half-inhibitory concentration (IC50) of under 100 nM.

In turn, `COc1ccc(C(=O)n2nc(-c3ccccc3F)cc2NCc2ccccc2)c(N)c1` [Cmpd 103, 1-[(2-amino-4-methoxyphenyl)carbonyl]-N-benzyl-3-(2-fluorophenyl)-1H-pyrazol-5-amine] displayed a half-maximal inhibitory concentration (IC50) of over 1000 nM.

On to `COc1ccc(C(=O)n2nc(-c3ccccn3)nc2NCc2ccccc2)c(N)c1` [Cmpd 104, 1-[(2-amino-4-methoxyphenyl)carbonyl]-N-benzyl-3-(pyridin-2-yl)-1H-1,2,4-triazol-5-amine], for which the IC50 is under 100 nM.

In the case of `COc1ccc(C(=O)n2nc(-c3ccccn3)cc2NCc2ccccc2)c(N)c1` [Cmpd 105, 1-[(2-amino-4-methoxyphenyl)carbonyl]-N-benzyl-3-(pyridin-2-yl)-1H-pyrazol-5-amine], the 50% inhibitory concentration (IC50) lay in the range of 100 to 1000 nM.

`Cc1ccc(C(=O)n2nc(-c3ccccc3F)cc2NCc2ccccc2)c(N)c1` [Cmpd 106, 1-[(2-amino-4-methylphenyl)carbonyl]-N-benzyl-3-(2-fluorophenyl)-1H-pyrazol-5-amine] had an IC50 of over 1000 nM.

Regarding `Cc1ccc(C(=O)n2nc(-c3ccccn3)nc2NCc2ccccc2)c(N)c1` [Cmpd 107, 1-[(2-amino-4-methylphenyl)carbonyl]-N-benzyl-3-(pyridin-2-yl)-1H-1,2,4-triazol-5-amine], the IC50 was under 100 nM.

`Cc1ccc(C(=O)n2nc(-c3ccccn3)cc2NCc2ccccc2)c(N)c1` [Cmpd 108, 1-[(2-amino-4-methylphenyl)carbonyl]-N-benzyl-3-(pyridin-2-yl)-1H-pyrazol-5-amine] displayed a half-maximal inhibitory concentration (IC50) of 100 to 1000 nM.

`Nc1ccccc1C(=O)n1nc(-c2ccccn2)nc1NCc1ccccc1` [Cmpd 109, 1-[(2-aminophenyl)carbonyl]-N-benzyl-3-(pyridin-2-yl)-1H-1,2,4-triazol-5-amine] gave a half-maximal inhibitory concentration (IC50) of under 100 nM.

The compound `CSc1nc(-c2cccs2)nn1C(=O)c1ccccc1Cl` [Cmpd 110, 1-[(2-chlorophenyl)carbonyl]-5-(methylsulfanyl)-3-(thiophen-2-yl)-1H-1,2,4-triazole] showed a half-inhibitory concentration (IC50) of under 100 nM.

`O=C(c1ccccc1Cl)n1nc(-c2ccccn2)nc1NCc1ccc(F)cc1` [Cmpd 111, 1-[(2-chlorophenyl)carbonyl]-N-[(4-fluorophenyl)methyl]-3-(pyridin-2-yl)-1H-1,2,4-triazol-5-amine] yielded a half-inhibitory concentration (IC50) of under 100 nM.

Take `O=C(c1ccccc1Cl)n1nc(-c2ccncc2)nc1NCc1ccc(F)cc1` [Cmpd 112, 1-[(2-chlorophenyl)carbonyl]-N-[(4-fluorophenyl)methyl]-3-(pyridin-4-yl)-1H-1,2,4-triazol-5-amine]: the concentration for half-maximal inhibition (IC50) is under 100 nM.

`O=C(c1ccccc1Cl)n1nc(-c2cccs2)nc1NCc1ccc(F)cc1` [Cmpd 113, 1-[(2-chlorophenyl)carbonyl]-N-[(4-fluorophenyl)methyl]-3-(thiophen-2-yl)-1H-1,2,4-triazol-5-amine] showed an IC50 of under 100 nM.

`O=C(c1ccccc1Cl)n1nc(-c2ccccc2)cc1NCc1ccc(F)cc1` [Cmpd 114, 1-[(2-chlorophenyl)carbonyl]-N-[(4-fluorophenyl)methyl]-3-phenyl-1H-pyrazol-5-amine] returned an IC50 of over 1000 nM.

In turn, `COc1ccccc1C(=O)n1nc(-c2ccccn2)cc1NCc1cccs1` [Cmpd 116, 1-[(2-methoxyphenyl)carbonyl]-3-(pyridin-2-yl)-N-(thiophen-2-ylmethyl)-1H-pyrazol-5-amine] came in with a 50% inhibitory concentration (IC50) of 100 to 1000 nM.

`COc1ccccc1C(=O)n1nc(-c2ccccn2)nc1NCc1ccsc1` [Cmpd 117, 1-[(2-methoxyphenyl)carbonyl]-3-(pyridin-2-yl)-N-(thiophen-3-ylmethyl)-1H-1,2,4-triazol-5-amine] showed a half-inhibitory concentration (IC50) of under 100 nM.

Turning to `COc1ccccc1C(=O)n1nc(-c2ccccn2)cc1NCc1ccsc1` [Cmpd 118, 1-[(2-methoxyphenyl)carbonyl]-3-(pyridin-2-yl)-N-(thiophen-3-ylmethyl)-1H-pyrazol-5-amine], the 50% inhibitory concentration (IC50) was in the range of 100 to 1000 nM.
